Measurements as given in patent US8618159B2, “Substituted N-phenyl-bipyrrolidine carboxamides and therapeutic use thereof” (Sanofi, priority 2007, dated 2013).
Counter-ions that a name gives are not always drawn. Like-named read-outs stand apart in the source and are kept apart here.

Tests used:
[1] = target: T1, rhesus (Macacca Mulatta) H3 receptor (Macaca mulatta, UniProt Q865E1); experiment: Rhesus H3 radioligand binding assay ([3H]-Methylhistamine displacement, WGA SPA beads); set-up: species or system rhesus monkey (Macacca Mulatta); conditions: read-out: Affinity: ki in Rhesus H3 membrane
T1 construct: pcDNA5/FRT/TO (Invitrogen) containing the rhesus monkey (Macacca Mulatta) 445 amino acid H3 receptor
T1 sequence (Q865E1 1-445): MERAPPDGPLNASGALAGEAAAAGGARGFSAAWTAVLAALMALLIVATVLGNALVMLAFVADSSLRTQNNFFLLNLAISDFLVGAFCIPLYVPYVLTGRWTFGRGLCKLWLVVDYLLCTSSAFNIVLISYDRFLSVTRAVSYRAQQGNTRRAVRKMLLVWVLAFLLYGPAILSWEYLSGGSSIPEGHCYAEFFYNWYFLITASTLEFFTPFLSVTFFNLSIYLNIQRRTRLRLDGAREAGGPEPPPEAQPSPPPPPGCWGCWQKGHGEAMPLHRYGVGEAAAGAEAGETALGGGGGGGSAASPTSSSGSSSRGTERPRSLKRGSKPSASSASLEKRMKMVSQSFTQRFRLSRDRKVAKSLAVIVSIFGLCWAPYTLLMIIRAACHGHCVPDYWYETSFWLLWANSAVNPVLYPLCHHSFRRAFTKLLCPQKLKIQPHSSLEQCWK
Procedure: (§1) (Genbank #AY231164). Stably transfected cultures were amplified in tissue culture flasks by standard tissue culture methods and induced to express rhesus H3 by exposure to 500 ng/ml tetracycline (Cellgro) for 24 hours. After induction, cells were dissociated from flasks utilizing Cell Stripper (Cellgro). Cells were centrifuged (1K×g, 5 min) and pellet frozen in an ethanol-dry ice bath to disrupt cell membranes. Frozen cell pellet was re-suspended in 5 mM HEPES (pH 7.4, Invitrogen) at 10 ml/1000 cm2 of harvested cells. The cell suspension was drawn through an 18 gauge needle (2-3×) followed by a 23 gauge needle (2-3×) to further disrupt cell membranes. The cell suspension was centrifuged (40K×g, 30 min). Cell membrane pellet was re-suspended in 5 mM HEPES (pH 7.4, Invitrogen) at a final protein concentration of 10 mg/ml. Rhesus H3 membranes were stored under liquid nitrogen prior to use in [3H]-Methylhistamine and GTPγS radioligand binding assays.
Rhesus H3 radioligand binding assay was performed using rhesus H3 receptor membranes (prepared as described above), [3H]-Methylhistamine (Perkin Elmer) and WGA SPA beads (wheat germ agglutinin scintillation proximity assay) beads (Amersham). The assay was performed in 96-well Opti-Plates (Packard). Each reaction contained 50 μl rhesus H3 membranes (20-30 μg total protein), 50 μl WGA SPA beads (0.1 μg) and 50 μl of 83 Ci/mmol [^3H]-Methylhistamine (final concentration 2 nM) and 50 μl of tested compound. The compounds of this invention and/or vehicle were diluted with binding buffer from 10 mM DMSO stocks. Assay plates were sealed with TopSeal (Perkin Elmer) and mixed on shaker (25° C., 1 hour). Assay plates were read on TopCount scintillation counter (Packard). Results were analyzed by Hill transformation and Ki values were determined by Cheng-Prusoff equation.

rhesus H3 = experiment: GTPγS radioligand binding assay, inhibition of rhesus H3 constitutive functional activity in cell membranes; type: biochemical, rhesus monkey (Macacca Mulatta); conditions: Table 1; relative to basal level
Procedure: as §1, with “Rhesus H3 membranes were prepared from the Flp-In T-REx 293 Cell Line (Invitrogen) stably transfected with pcDNA5/FRT/TO (Invitrogen) containing the rhesus monkey (Macacca Mulatta) 445 amino acid H3 receptor. (Genbank” for “(Genbank”

[2] = Table 2, stereoisomer comparison, procedure of Example 148
[3] = Table 1, [3H]-Methylhistamine 2 nM, Cheng-Prusoff

Compound	Ki [1, 2] [nM]	Ki [1, 3] [nM]	Inverse Agonism: % inhibition of Basal GTPγS binding in Rhesus H3 (rhesus H3) [%]
Cc1cc(N2CC[C@@H](N3CCC[C@@H]3C)C2)ccc1NC(=O)c1cc(F)ccc1C [Example 3, 5-Fluoro-2-methyl-N-[2-methyl-4-(2(2S)-methyl-[1,3′(3′R)]bipyrrolidinyl-1′-yl)-phenyl]-benzamide]	7.3		
Cc1cc(N2CCC(N3CCCC3C)C2)ccc1NC(=O)c1ccc(F)cc1 (stereo not drawn) [Example 7, 4-Fluoro-N-[2-methyl-4-(2-methyl-[1,3′]bipyrrolidinyl-1′-yl)-phenyl]-benzamide]		2.06	−31
Cc1cc(N2CC[C@H](N3CCC[C@@H]3C)C2)ccc1NC(=O)c1ccc2[nH]ccc2c1 [Example 52, 1H-Indole-5-carboxylic acid [2-methyl-4-(2(S)-methyl-[1,3′(5)]-bipyrrolidinyl-1′-yl)-phenyl]-amide trifluoroacetate]		0.77	−17
Cc1cc(N2CC[C@H](N3CCC[C@@H]3C)C2)ccc1NC(=O)c1ccc2ccoc2c1 [Example 73, Benzofuran-6-carboxylic acid [2-methyl-4-(2(S)-methyl-[1,3′(S)]bipyrrolidinyl-1′-yl)-phenyl]-amide trifluoroacetate]		0.78	−15
Cc1cccc(C(=O)Nc2ccc(N3CC[C@H](N4CCC[C@@H]4C)C3)cc2C)n1 [Example 86, 6-Methyl-pyridine-2-carboxylic acid [2-methyl-4-(2(S)-methyl-[1,3′(S)]bipyrrolidinyl-1′-yl)-phenyl]-amide trifluoroacetate]		1.42	−18

Further lines, with some results ahead:

Ki [1, 2] [nM]	Ki [1, 3] [nM]	Compound	Inverse Agonism: % inhibition of Basal GTPγS binding in Rhesus H3 (rhesus H3) [%]
121		Cc1cc(N2CC[C@H](N3CCC[C@H]3C)C2)ccc1NC(=O)c1cc(F)ccc1C [Example 5, 5-Fluoro-2-methyl-N-[2-methyl-4-(2(2R)-methyl-[1,3′(3′S)]bipyrrolidinyl-1′-yl)-phenyl]-benzamide]	
2.5		Cc1cc(N2CC[C@@H](N3CCC[C@@H]3C)C2)ccc1NC(=O)c1cc(F)ccc1C [Example 11, 5-Fluoro-2-methyl-N-[2-methyl-4-(2-(2S)-methyl-[1,3′(3′S)]bipyrrolidinyl-1′-yl)-phenyl]-benzamide]	
147		Cc1cc(N2CC[C@@H](N3CCC[C@H]3C)C2)ccc1NC(=O)c1cc(F)ccc1C [Example 12, 5-Fluoro-2-methyl-N-[2-methyl-4-(2-(R)-methyl-[1,3′(R)]bipyrrolidinyl-1′-yl)-phenyl]-benzamide hydrochloride]	
